Assay results taken from patent US20260049072A1, “HETEROCYCLIC COMPOUND FOR INDUCING DEGRADATION OF MUTANT KRAS PROTEIN” (Astellas Pharma Inc., priority 2022, published 2026).
Like-named read-outs stand apart in the source and are kept apart here.

Tests used:
[1] = test system: PA-TU-8902 cells; experiment: Non-anchorage-dependent cell growth inhibition (spheroid 3D culture), PA-TU-8902; format: cell-based, human; conditions: Homo sapiens, PaTu 8902, 144 h, read-out: PA-TU-8902 IC50
Procedure: (§1) Test Example 3: Evaluation of Non-Anchorage-Dependent Cell Growth Inhibitory Activity on Human KRAS G12V Mutant-Positive Pancreatic Cancer Line PA-TU-8902, Human KRAS G12D Mutant-Positive Pancreatic Cancer Line AsPC-1 or Human KRAS G12C Mutant-Positive Pancreatic Cancer Line MIA PaCa-2
(§2) The non-anchorage-dependent cell growth inhibitory activities of subject compounds were evaluated by spheroid 3D cell culture.
(§3) PA-TU-8902 cells, AsPC-1 cells or MIA PaCa-2 cells (RIKEN BRC, RCB2094) were seeded at 36 µL/well on a low-cell-adhesive round bottom 384-well plate (Prime Surface: from Sumitomo Bakelite) to give 5×10^2 cells per well. The PA-TU-8902 cells were under the same conditions as in Test Example 1-1, and the AsPC-1 cells were under the same conditions as in Test Example 1-2. For the MIA PaCa-2 cells, RPMI-1640 medium containing 10% fetal bovine serum was used in the presence of 5% CO2 at 37° C.
(§4) The next day, the subject compounds (6-9 points having final concentrations in the range of 3 μM to 0.3 nM) and DMSO, which was the solvent for the subject compounds, as a negative control were diluted 100-fold with a fresh medium and were each added at 4 μL per well. After culturing in the presence of 5% CO2 at 37° C. for six days, CellTiter-Glo 2.0 (from Promega) was added at 20 μL per well. After stirring with a plate mixer (from FINEPCR) at normal temperature for an hour, the luminescent signals were measured with ARVO X3 (from PerkinElmer).
(§5) With the signaling value in treatment with DMSO taken as 0% inhibition and with the signaling value in the medium alone without cells taken as 100% inhibition, the 50% inhibition values (IC50) were calculated by Sigmoid-Emax model nonlinear regression analysis.

[2] = test system: MIA PaCa-2 cells; experiment: Non-anchorage-dependent cell growth inhibition (spheroid 3D culture), MIA PaCa-2; format: cell-based; conditions: Homo sapiens, MIA PaCa-2, 144 h, read-out: MIA PaCa-2 IC50
Procedure: as §1, §2, §3, §4, §5

[3] = biological target: T1, RAS G12V (Homo sapiens, UniProt P01116, G12V); experiment: RAS G12V degradation activity, Cell ELISA, PA-TU-8902; format: cell-based; conditions: PA-TU-8902 cells, 24 hours, 100% = Example compound 17 at 1 μM; read-out: DC50 (RAS G12V 50% degradation value)
T1 construct: host or cells: PA-TU-8902 human pancreatic cancer cells
T1 sequence (P01116 1-188 isoform P01116-2 G12V): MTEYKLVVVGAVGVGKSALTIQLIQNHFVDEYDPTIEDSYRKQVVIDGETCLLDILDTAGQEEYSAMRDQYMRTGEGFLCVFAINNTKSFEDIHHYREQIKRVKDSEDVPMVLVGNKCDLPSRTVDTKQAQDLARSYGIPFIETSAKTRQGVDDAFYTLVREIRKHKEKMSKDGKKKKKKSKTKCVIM
Procedure: Test Example 1-1: Evaluation of RAS G12V Degradation Activity on Human KRAS G12V Mutant-Positive Pancreatic Cancer Line PA-TU-8902
The RAS G12V degradation activities of subject compounds were evaluated by measuring the expression levels of RAS G12V by a Cell ELISA method.
PA-TU-8902 cells (DSMZ, ACC 179) were seeded at 36 μL per well on a 384-well plate (from Greiner bio-one) to give 1.5×10^4 cells per well. As for the cell culture conditions, DMEM medium (from Sigma-Aldrich) containing 10% fetal bovine serum (from Cytiva) was used in the presence of 5% CO2 at 37° C.
The next day, the subject compounds (10 points having final concentrations in the range of 3 μM to 0.1 nM), Example compound 17 of a final concentration of 1 μM as a positive control and dimethyl sulfoxide (DMSO), which was the solvent for the subject compounds, as a negative control were diluted 100-fold with a fresh medium and were each added at 4 μL per well, followed by culturing for 24 hours.
The next day, the culture supernatant was removed, and a 4% paraformaldehyde phosphate buffer solution (from FUJIFILM Wako) was added at 20 μL per well. The plate was allowed to stand for 30 minutes at room temperature to thus immobilize the cells. Then, the supernatant was removed, and 0.1% Triton X-100 (from Amersham Biosciences)-containing Phosphate buffered saline (PBS) was added at 20 μL per well. After allowing the plate to stand at room temperature for 10 minutes, the supernatant was removed, and the wells were washed twice in total by adding PBS at 25 μL per well and removing the supernatant. The washing operations below were performed in the same manner. Next, the supernatant was removed, and 0.5% sodium dodecyl sulfate (SDS; from ThermoFisher Scientific)-containing PBS was added at 20 μL per well. After allowing the plate to stand at room temperature for 10 minutes, the plate was centrifuged to remove the supernatant. After washing with PBS, the supernatant was removed by centrifugation, and a blocking solution (PVDF Blocking Reagent for Can Get Signal; from TOYOBO) was added at 20 μL per well. After allowing the plate to stand for 30 minutes at room temperature, the supernatant was removed by centrifugation, and a solution obtained by diluting an anti-Ras (G12V Mutant Specific) antibody (Ras (G12V Mutant Specific) (D2H12) Rabbit mAb; from Cell Signaling Technology; 500-fold dilution) and an anti-3-actin antibody (Anti-beta Actin antibody; from Abcam; 5,000-fold dilution) with Can Get Signal Solution 2 (from TOYOBO) was added at 15 μL per well as primary antibodies. The plate was allowed to stand overnight at 4° C.
The next day, the supernatant was removed by centrifugation, and the plate was washed with PBS. The supernatant was removed by centrifugation, and a solution obtained by diluting an anti-rabbit IgG antibody (IRDye 800CW Goat anti-Rabbit IgG; from LI-COR Biosciences) and an anti-mouse IgG antibody (IRDye 680RD Donkey anti-Mouse IgG; from LI-COR Biosciences) 1,000-fold with Can Get Signal Solution 2 was added at 15 μL per well as secondary antibodies. After allowing the plate to stand at room temperature for an hour, the supernatant was removed by centrifugation, and the plate was washed with PBS. After removing the supernatant, the plate was dried as it was with air at room temperature for two hours or more, and the 700-nm and 800-nm fluorescent signals were measured with Aerius (from LI-COR Biosciences).
With the RAS G12V signaling value at the time of addition of DMSO corrected with the signaling value of 3-actin taken as 0% and with the RAS G12V signaling value at the time of addition of Example compound 17 of a final concentration of 1 μM taken as 100%, the RAS G12V degradation rates were calculated. The 50% degradation values (DC50) were calculated by Sigmoid-Emax model nonlinear regression analysis.

[4] = KRAS G12V mutant-positive, 3D spheroid, six days, CellTiter-Glo 2.0
[5] = KRAS G12C mutant-positive, 3D spheroid, six days, CellTiter-Glo 2.0

| IC50 [2, 5] [nM] | DC50 [3] [nM] | SMILES | IC50 [1, 4] [nM] | IC50 [1] [nM] | IC50 [2] [nM] |
| --- | --- | --- | --- | --- | --- |
| 9 | 21 | COC(C)(C)COc1cc(OC2CN(C(=O)N3CC(CN(C)C)C3)C2)c2cc(C3CC3)c(-c3c(C)c(F)cc4[nH]ncc34)c(OCc3ccc(-c4cn([C@H](C(=O)N5C[C@H](O)C[C@H]5C(=O)N[C@@H](CO)c5ccc(-n6cncn6)cc5)C(C)C)nn4)cc3)c2n1 (atropisomer, axis not shown) [Example 9] | 53 | – | – |
| 5 | 26 | CO[C@@H](C)COc1cc(OC2CN(C(=O)N3CC(CN(C)C)C3)C2)c2cc(C3CC3)c(-c3c(C)c(F)cc4[nH]ncc34)c(OCc3ccc(-c4cn([C@H](C(=O)N5C[C@H](O)C[C@H]5C(=O)N[C@@H](CO)c5ccc(-n6cncn6)cc5)C(C)C)nn4)cc3)c2n1 (atropisomer, axis not shown; (M)) [Example 5, (4R)-1-[(2S)-2-(4-{4-[({(7M)-6-cyclopropyl-4-[(1-{3-[(dimethylamino)methyl]azetidine-1-carbonyl}azetidin-3-yl)oxy]-7-(6-fluoro-5-methyl-1H-indazol-4-yl)-2-[(2S)-2-methoxypropoxy]quinolin-8-yl}oxy)methyl]phenyl}-1H-1,2,3-triazol-1-yl)-3-methylbutanoyl]-4-hydroxy-N-{(1R)-2-hydroxy-1-[4-(1H-1,2,4-triazol-1-yl)phenyl]ethyl}-L-prolinamide] | 29 | – | – |
| 12 | 18 | CO[C@@H](C)COc1nc(NC2CN(C(=O)O[C@H]3C[C@@H](N(C)C)C3)C2)c2cc(C3CC3)c(-c3c(C)c(F)cc4[nH]ncc34)c(OCc3ccc(-c4cn([C@H](C(=O)N5C[C@H](O)C[C@H]5C(=O)N[C@@H](CO)c5ccc(-n6cncn6)cc5)C(C)C)nn4)cc3)c2n1 (atropisomer, axis not shown; (M)) [Example 2, (1s,3R)-3-(dimethylamino)cyclobutyl 3-({(7M)-6-cyclopropyl-7-(6-fluoro-5-methyl-1H-indazol-4-yl)-8-{[4-(1-{(2S)-1-[(2S,4R)-4-hydroxy-2({(1R)-2-hydroxy-1-[4-(1H-1,2,4-triazol-1-yl)phenyl]ethyl}carbamoyl)pyrrolidin-1-yl]-3-methyl-1-oxobutan-2-yl}-1H-1,2,3-triazol-4-yl)phenyl]methoxy}-2-[(2S)-2-methoxypropoxy]quinazolin-4-yl}amino)azetidine-1-carboxylate] | 33 | – | – |
| 13 | 11 | CO[C@@H](C)COc1cc(OC2CN(C(=O)O[C@H]3C[C@@H](N(C)C)C3)C2)c2cc(C3CC3)c(-c3c(C)c(F)cc4[nH]ncc34)c(OCc3ccc(-c4cn([C@H](C(=O)N5C[C@H](O)C[C@H]5C(=O)N[C@@H](CO)c5ccc(-n6cncn6)cc5)C(C)C)nn4)cc3)c2n1 (atropisomer, axis not shown; (M)) [Example 13, (1s,3R)-3-(dimethylamino)cyclobutyl 3-({(7M)-6-cyclopropyl-7-(6-fluoro-5-methyl-1H-indazol-4-yl)-8-{[4-(1-{(2S)-1-[(2S,4R)-4-hydroxy-2-({(1R)-2-hydroxy-1-[4-(1H-1,2,4-triazol-1-yl)phenyl]ethyl}carbamoyl)pyrrolidin-1-yl]-3-methyl-1-oxobutan-2-yl}-1H-1,2,3-triazol-4-yl)phenyl]methoxy}-2-[(2S)-2-methoxypropoxy]quinolin-4-yl}oxy)azetidine-1-carboxylate] | 36 | – | – |

The next lines start with the molecule.

| SMILES | IC50 [2, 5] [nM] | DC50 [3] [nM] | IC50 [1, 4] [nM] | IC50 [1] [nM] | IC50 [2] [nM] |
| --- | --- | --- | --- | --- | --- |
| CO[C@@H](C)COc1nc(NC2CN(C(=O)O[C@H]3C[C@@H](N(C)C)C3)C2)c2cc(C3CC3)c(-c3c(C)c(F)cc4[nH]ncc34)c(OCc3ccc(-c4cn([C@H](C(=O)N5C[C@H](O)C[C@H]5C(=O)N[C@@H](CO)c5ccc(N6CCOC6=O)cc5)C(C)C)nn4)cc3)c2n1 (atropisomer, axis not shown) [Example 4] | 22 | 45 | 72 | – | – |
| CO[C@@H](C)COc1nc(OC2CN(C(=O)NCCN(C)C)C2)c2cc(C3CC3)c(-c3c(C)c(F)cc4[nH]ncc34)c(OCc3ccc(-c4cn([C@H](C(=O)N5C[C@H](O)C[C@H]5C(=O)N[C@@H](CO)c5ccc(-c6scnc6C)cc5)C(C)C)nn4)cc3)c2n1 (atropisomer, axis not shown) [Example 17] | 10 | 41 | 46 | – | – |
| CO[C@@H](C)COc1cc(OC2CN(C(=O)C3CN(C)C3)C2)c2cc(C3CC3)c(-c3c(C)c(F)cc4[nH]ncc34)c(OCc3ccc(-c4cn([C@H](C(=O)N5C[C@H](O)C[C@H]5C(=O)N[C@@H](CO)c5ccc(-n6cncn6)cc5)C(C)C)nn4)cc3)c2n1 (atropisomer, axis not shown) [Example 42] | – | 30 | – | 32 | 9 |
| CO[C@@H](C)COc1nc(NC2CN(C(=O)O[C@H]3C[C@@H](N(C)C)C3)C2)c2cc(C3CC3)c(-c3c(C)c(F)cc4[nH]ncc34)c(OCc3ccc(-c4cn([C@H](C(=O)N5C[C@H](O)C[C@H]5C(=O)N[C@@H](CO)c5ccc(-c6scnc6C)cc5)C(C)C)nn4)cc3)c2n1 (atropisomer, axis not shown; (M)) [Example 11, (1s,3R)-3-(dimethylamino)cyclobutyl 3-({(7M)-6-cyclopropyl-7-(6-fluoro-5-methyl-1H-indazol-4-yl)-8-{[4-(1-{(2S)-1-[(2S,4R)-4-hydroxy-2-({(1R)-2-hydroxy-1-[4-(4-methyl-1,3-thiazol-5-yl)phenyl]ethyl}carbamoyl)pyrrolidin-1-yl]-3-methyl-1-oxobutan-2-yl}-1H-1,2,3-triazol-4-yl)phenyl]methoxy}-2-[(2S)-2-methoxypropoxy]quinazolin-4-yl}amino)azetidine-1-carboxylate] | 13 | 13 | 45 | – | – |
